Reference: patent US20180200257A1, “METHODS FOR THE TREATMENT OF INFLAMMATORY DISORDERS” (Galapagos NV, priority 2015, published 2018)

Test system: Subjects With Active Crohn's Disease With Evidence of Mucosal Ulceration
Test: Study 3 - Crohn's Disease Activity Index (CDAI) scores
Assay type: in vivo, human
Text: Double-Blind, Randomized, Placebo-Controlled, Multi-Centre Study to Investigate the Efficacy and Safety of Compound 1 in Subjects With Active Crohn's Disease With Evidence of Mucosal Ulceration. This is a double-blind, randomized, placebo-controlled, multi-centre Phase 2 study to investigate the efficacy and safety of Compound 1 administered once daily for the treatment of active CD with evidence of mucosal ulceration. The pharmacokinetics (including a PK substudy) and pharmacodynamics of Compound 1 and metabolite in CD will also be characterised. A total of 180 eligible subjects will be randomized to receive Compound 1 or placebo in addition to their stable background treatment (eg, corticosteroids, aminosalicylates, or CD-related antibiotics). The study will consist of 2 parts, with total treatment duration of 20 weeks. Randomization in Part 1 will be stratified according the subject's previous anti-TNF exposure/response, CRP level at Screening, and oral corticosteroid use at visit Day −1. After the first 10 weeks of treatment in Part 1, patients will be re-randomized for Part 2 as shown in the diagram below and will be stratified according to the subject's clinical response, previous anti-TNF exposure/response, and oral corticosteroid use at visit Day -1. [table] The Crohn's disease activity index (CDAI) is a numerical calculation derived from the sum of products from a list of 8 items (see Table CXXVI below), and multiplied by weighting factors for each item to define the severity of “disease activity” in patients with Crohn's disease (CD)[1]. Essentially, the CDAI represents a numerical estimation of a physician's interpretation of patient symptoms. Index values of 150 and below are associated with quiescent or non-active disease (i.e. “remission”). Values over 150 are indicative of active disease, and over 450, extremely severe disease.% In the present study, clinical remission is defined as a CDAI score of <150 points, and a clinical response is defined as a decrease in CDAI score of at least 100 points.

[1] = 200 mg, LOCF, baseline corticosteroid use: with steroids
[2] = 200 mg, LOCF, baseline corticosteroid use: without steroids
[3] = 200 mg, week 10, Anti-TNF Naïve
[4] = 200 mg, week 10, Anti-TNF experienced non-responders
[5] = 200 mg, week 10, LOCF, screening CRP ≤ 10 ml/L
[6] = 200 mg, week 10, LOCF, screening CRP ≥ 10 mg/L
[7] = initial 200 mg non-responders, continued 200 mg, week 10
[8] = initial 200 mg non-responders, continued 200 mg, week 20
[9] = initial 200 mg non-responders, to placebo, week 10
[10] = initial 200 mg non-responders, to placebo, week 20
[11] = initial 200 mg responders, continued 200 mg, week 10
[12] = initial 200 mg responders, continued 200 mg, week 20
[13] = initial 200 mg responders, to 100 mg, week 10
[14] = initial 200 mg responders, to 100 mg, week 20
[15] = initial 200 mg responders, to placebo, week 10
[16] = initial 200 mg responders, to placebo, week 20
[17] = initial placebo non-responders switching to 100 mg at week 10, week 20

O=C(Nc1nc2cccc(-c3ccc(CN4CCS(=O)(=O)CC4)cc3)n2n1)C1CC1 [Compound 1, cyclopropanecarboxylic acid {5-[4-(1,1-dioxo-thiomorpholin-4-ylmethyl)-phenyl]-[1,2,4]triazolo[1,5-a]pyridin-2-yl}-amide]
70 point clinical response (CDAI improvement ≥ 70 points) [1]: 70% | 100 point clinical response (CDAI improvement ≥ 100 points) [1]: 60% | Clinical Remission (CDAI < 150) [1]: 52% | 70 point clinical response (CDAI improvement ≥ 70 points) [2]: 72% | 100 point clinical response (CDAI improvement ≥ 100 points) [2]: 71% | Clinical Remission (CDAI < 150) [2]: 48% | 70 point clinical response (CDAI improvement ≥ 70 points) [3]: 81% | 100 point clinical response (CDAI improvement ≥ 100 points), LOCF [3]: 74% | Clinical Remission (CDAI < 150), LOCF [3]: 65% | 70 point clinical response (CDAI improvement ≥ 70 points) [4]: 63% | 100 point clinical response (CDAI improvement ≥ 100 points), LOCF [4]: 59% | Clinical Remission (CDAI < 150), LOCF [4]: 38% | 70 point clinical response (CDAI improvement ≥ 70 points) [5]: 73% | 100 point clinical response (CDAI improvement ≥ 100 points) [5]: 66% | Clinical Remission (CDAI < 150) [5]: 46% | 70 point clinical response (CDAI improvement ≥ 70 points) [6]: 69% | 100 point clinical response (CDAI improvement ≥ 100 points) [6]: 65% | Clinical Remission (CDAI < 150) [6]: 56% | 100 point clinical response (CDAI improvement ≥ 100 points), LOCF (200 mg, week 10, overall): 66% | 100 point clinical response (CDAI improvement ≥ 100 points), NRI (200 mg, week 10, overall): 60% | Clinical Remission (CDAI < 150), LOCF (200 mg, week 10, overall): 50% | Clinical Remission (CDAI <150), NRI (200 mg, week 10, overall): 48% | Clinical Remission (CDAI < 150), LOCF [7]: 16% | Clinical Remission (CDAI <150), NRI [7]: 16% | Clinical Remission (CDAI <150), OC [7]: 16% | Clinical Response (CDAI ≥70), LOCF [7]: 44% | Clinical Response (CDAI ≥70), NRI [7]: 44% | Clinical Response (CDAI ≥70), OC [7]: 44% | Clinical Response (CDAI ≥100), LOCF [7]: 32% | Clinical Response (CDAI ≥100), NRI [7]: 32% | Clinical Response (CDAI ≥ 100), OC [7]: 32% | Clinical Remission (CDAI < 150), LOCF [8]: 28% | Clinical Remission (CDAI <150), NRI [8]: 24% | Clinical Remission (CDAI <150), OC [8]: 30% | Clinical Response (CDAI ≥70), LOCF [8]: 44% | Clinical Response (CDAI ≥70), NRI [8]: 40% | Clinical Response (CDAI ≥70), OC [8]: 50% | Clinical Response (CDAI ≥100), LOCF [8]: 36% | Clinical Response (CDAI ≥100), NRI [8]: 32% | Clinical Response (CDAI ≥ 100), OC [8]: 40% | Clinical Remission (CDAI < 150), LOCF [9]: 0% | Clinical Remission (CDAI <150), NRI [9]: 0% | Clinical Remission (CDAI <150), OC [9]: 0% | Clinical Response (CDAI ≥70), LOCF [9]: 22% | Clinical Response (CDAI ≥70), NRI [9]: 11% | Clinical Response (CDAI ≥70), OC [9]: 13% | Clinical Response (CDAI ≥100), LOCF [9]: 22% | Clinical Response (CDAI ≥100), NRI [9]: 11% | Clinical Response (CDAI ≥ 100), OC [9]: 13% | Clinical Remission (CDAI < 150), LOCF [10]: 33% | Clinical Remission (CDAI <150), NRI [10]: 33% | Clinical Remission (CDAI <150), OC [10]: 38% | Clinical Response (CDAI ≥70), LOCF [10]: 44% | Clinical Response (CDAI ≥70), NRI [10]: 44% | Clinical Response (CDAI ≥70), OC [10]: 50% | Clinical Response (CDAI ≥100), LOCF [10]: 33% | Clinical Response (CDAI ≥100), NRI [10]: 33% | Clinical Response (CDAI ≥ 100), OC [10]: 38% | Clinical Remission (CDAI < 150), LOCF [11]: 67% | Clinical Remission (CDAI <150), NRI [11]: 63% | Clinical Remission (CDAI <150), OC [11]: 70% | Clinical Response (CDAI decrease ≥100 points), OC [11]: 93% | Clinical Response (CDAI ≥70), LOCF [11]: 100% | Clinical Response (CDAI ≥70), NRI [11]: 90% | Clinical Response (CDAI ≥70), OC [11]: 100% | Clinical Response (CDAI ≥100), LOCF [11]: 93% | Clinical Response (CDAI ≥100), NRI [11]: 83% | Clinical Remission (CDAI < 150), LOCF [12]: 57% | Clinical Remission (CDAI <150), NRI [12]: 50% | Clinical Remission (CDAI <150), OC [12]: 58% | Clinical Response (CDAI decrease ≥100 points), OC [12]: 77% | Clinical Response (CDAI ≥70), LOCF [12]: 80% | Clinical Response (CDAI ≥70), NRI [12]: 70% | Clinical Response (CDAI ≥70), OC [12]: 81% | Clinical Response (CDAI ≥100), LOCF [12]: 77% | Clinical Response (CDAI ≥100), NRI [12]: 67% | Clinical Remission (CDAI < 150), LOCF [13]: 87% | Clinical Remission (CDAI <150), NRI [13]: 87% | Clinical Remission (CDAI <150), OC [13]: 87% | Clinical Response (CDAI decrease ≥100 points), OC [13]: 97% | Clinical Response (CDAI ≥70), LOCF [13]: 100% | Clinical Response (CDAI ≥70), NRI [13]: 100% | Clinical Response (CDAI ≥70), OC [13]: 100% | Clinical Response (CDAI ≥100), LOCF [13]: 97% | Clinical Response (CDAI ≥100), NRI [13]: 97% | Clinical Remission (CDAI < 150), LOCF [14]: 63% | Clinical Remission (CDAI <150), NRI [14]: 60% | Clinical Remission (CDAI <150), OC [14]: 75% | Clinical Response (CDAI decrease ≥100 points), OC [14]: 92% | Clinical Response (CDAI ≥70), LOCF [14]: 83% | Clinical Response (CDAI ≥70), NRI [14]: 77% | Clinical Response (CDAI ≥70), OC [14]: 96% | Clinical Response (CDAI ≥100), LOCF [14]: 80% | Clinical Response (CDAI ≥100), NRI [14]: 73% | Clinical Remission (CDAI < 150), LOCF [15]: 79% | Clinical Remission (CDAI <150), NRI [15]: 71% | Clinical Remission (CDAI <150), OC [15]: 77% | Clinical Response (CDAI decrease ≥100 points), OC [15]: 92% | Clinical Response (CDAI ≥70), LOCF [15]: 100% | Clinical Response (CDAI ≥70), NRI [15]: 93% | Clinical Response (CDAI ≥70), OC [15]: 100% | Clinical Response (CDAI ≥100), LOCF [15]: 93% | Clinical Response (CDAI ≥100), NRI [15]: 86% | Clinical Remission (CDAI < 150), LOCF [16]: 79% | Clinical Remission (CDAI <150), NRI [16]: 71% | Clinical Remission (CDAI <150), OC [16]: 77% | Clinical Response (CDAI decrease ≥100 points), OC [16]: 85% | Clinical Response (CDAI ≥70), LOCF [16]: 93% | Clinical Response (CDAI ≥70), NRI [16]: 86% | Clinical Response (CDAI ≥70), OC [16]: 92% | Clinical Response (CDAI ≥100), LOCF [16]: 86% | Clinical Response (CDAI ≥100), NRI [16]: 79% | Clinical Remission (CDAI < 150), LOCF [17]: 32% | Clinical Remission (CDAI <150), NRI [17]: 32% | Clinical Remission (CDAI <150), OC [17]: 33% | Clinical Response (CDAI ≥70), LOCF [17]: 68% | Clinical Response (CDAI ≥70), NRI [17]: 68% | Clinical Response (CDAI ≥70), OC [17]: 71% | Clinical Response (CDAI ≥100), LOCF [17]: 59% | Clinical Response (CDAI ≥100), NRI [17]: 59% | Clinical Response (CDAI ≥ 100), OC [17]: 62%
